Test results: patent US12043670B2, “Anti-BCMA antibody-drug conjugates and methods of use” (Eisai R&D Management Co., Ltd., priority 2020, dated 2024)
Where a SMILES comes first, the peptide text is derived from it. [ ]: non-standard residue; d: D form. Dolaproine = CO[C@@H]([C@@H]1CCCN1)[C@@H](C)C(=O)O; Dil = CC[C@H](C)[C@H](NC)[C@@H](CC(=O)O)OC; NMeV = CN[C@H](C(=O)O)C(C)C

How the values were obtained:
Type in all cases: cell-based, human
MM1.S cells = test: CellTiter-Glo cell viability, MM1.S; settings: MM1S cells, 6 days; for GI50: read-out: GI50; for RminAve: negative = cell death vs T0
MM1.R cells = test: CellTiter-Glo cell viability, MM1.R; settings: MM1R cells, 6 days; for GI50: read-out: GI50; for RminAve: negative = cell death vs T0
OPM2 cells = test: CellTiter-Glo cell viability, OPM2 (normal serum); settings: OPM2 cells, 6 days; for GI50: read-out: GI50; for RminAve: negative = cell death vs T0
NCI-H929 cells = test: CellTiter-Glo cell viability, NCI-H929 (normal serum); settings: NCIH929 cells, 6 days; for GI50: read-out: GI50; for RminAve: negative = cell death vs T0
MOLP8 cells = test: CellTiter-Glo cell viability, MOLP8; settings: MOLP8 cells, 6 days; for GI50: read-out: GI50; for RminAve: negative = cell death vs T0
LP-1 cells = test: 6-day CellTiter-Glo cell viability, LP-1; settings: LP1 cells, 6 days; for GI50: read-out: GI50; for RminAve: negative = cell death vs T0
AMO-1 cells = test: 6-day CellTiter-Glo cell viability, AMO-1; settings: AMO1 cells, 6 days; for GI50: read-out: GI50; for RminAve: negative = cell death vs T0
EJM cells = test: 6-day CellTiter-Glo cell viability, EJM; settings: EJM cells, 6 days; for GI50: read-out: GI50; for RminAve: negative = cell death vs T0
RPMI-8226 cells = test: 6-day CellTiter-Glo cell viability, RPMI-8226; settings: RPMI8226 cells, 6 days; for GI50: read-out: GI50; for RminAve: negative = cell death vs T0
U266B1 cells = test: 6-day CellTiter-Glo cell viability, U266B1; settings: U266B1 cells, 6 days; for GI50: read-out: GI50; for RminAve: negative = cell death vs T0
KMS-11 cells = test: 6-day CellTiter-Glo cell viability, KMS-11; settings: KMS11 cells, 6 days; for GI50: read-out: GI50; for RminAve: negative = cell death vs T0

## CC[C@H](C)[C@@H]([C@@H](CC(=O)N1CCC[C@H]1[C@H](OC)[C@@H](C)C(=O)N[C@@H](Cc1ccccc1)C(=O)O)OC)N(C)C(=O)[C@@H](NC(=O)[C@@H](NC)C(C)C)C(C)C [MMAF] (H-[NMeV]V[Dil][Dolaproine]F-OH)
MM1.S cells
  AUC (nM * % relative viability): 726.0671 nM * % relative viability
  RminAve: −99.8301%
MM1.S cells; CellTiter-Glo
  LD50: 615.7256 nM
  GI50: 0.296 µM
MM1.R cells
  AUC (nM * % relative viability): 721.5643 nM * % relative viability
  RminAve: −99.7818%
MM1.R cells; CellTiter-Glo
  LD50: 584.6173 nM
  GI50: 0.281 µM
OPM2 cells
  AUC (nM * % relative viability): 740.134 nM * % relative viability
  RminAve: −99.7203%
OPM2 cells; CellTiter-Glo
  LD50: 723.9832 nM
  GI50: 0.348 µM
NCI-H929 cells
  AUC (nM * % relative viability): 734.8893 nM * % relative viability
  RminAve: −99.782%
NCI-H929 cells; CellTiter-Glo
  LD50: 676.4428 nM
  GI50: 0.321 µM
MOLP8 cells
  AUC (nM * % relative viability): 788.7538 nM * % relative viability
  RminAve: −58.9492%
MOLP8 cells; CellTiter-Glo
  LD50: 4.689579 µM
  GI50: 0.254 µM
LP-1 cells
  AUC (nM * % relative viability): 724.5606 nM * % relative viability
  RminAve: −97.9742%
LP-1 cells; CellTiter-Glo
  LD50: 761.0403 nM
  GI50: 0.223 µM
AMO-1 cells
  AUC (nM * % relative viability): 640.894 nM * % relative viability
  RminAve: −99.5356%
AMO-1 cells; CellTiter-Glo
  LD50: 243.7059 nM
  GI50: 0.101 µM
EJM cells
  AUC (nM * % relative viability): 600.0131 nM * % relative viability
  RminAve: −98.8551%
EJM cells; CellTiter-Glo
  LD50: 194.3761 nM
  GI50: 0.0515 µM
RPMI-8226 cells
  AUC (nM * % relative viability): 714.2788 nM * % relative viability
  RminAve: −95.3537%
RPMI-8226 cells; CellTiter-Glo
  LD50: 557.1533 nM
  GI50: 0.224 µM
U266B1 cells
  AUC (nM * % relative viability): 661.824 nM * % relative viability
  RminAve: −89.2656%
U266B1 cells; CellTiter-Glo
  LD50: 192.3371 nM
  GI50: 0.0678 µM
KMS-11 cells
  AUC (nM * % relative viability): 706.6578 nM * % relative viability
  RminAve: −98.8009%
KMS-11 cells; CellTiter-Glo
  LD50: 490.3828 nM
  GI50: 0.235 µM

## N.N.[Cl][Pt][Cl] [cisplatin]
MM1.S cells; CellTiter-Glo
  GI50: 10.2 µM
MM1.S cells
  RminAve: −99.8687%
MM1.R cells; CellTiter-Glo
  GI50: 7.3 µM
MM1.R cells
  RminAve: −99.9355%
OPM2 cells; CellTiter-Glo
  GI50: 17 µM
OPM2 cells
  RminAve: −99.784%
NCI-H929 cells; CellTiter-Glo
  GI50: 21.4 µM
NCI-H929 cells
  RminAve: −99.945%
MOLP8 cells; CellTiter-Glo
  GI50: 5.07 µM
MOLP8 cells
  RminAve: −99.8824%
LP-1 cells; CellTiter-Glo
  GI50: 50.1 µM
LP-1 cells
  RminAve: −97.8184%
AMO-1 cells; CellTiter-Glo
  GI50: 8.59 µM
AMO-1 cells
  RminAve: −99.8648%
EJM cells; CellTiter-Glo
  GI50: 30.1 µM
EJM cells
  RminAve: −99.8757%
RPMI-8226 cells; CellTiter-Glo
  GI50: 16.3 µM
RPMI-8226 cells
  RminAve: −99.2206%
U266B1 cells; CellTiter-Glo
  GI50: 39.9 µM
U266B1 cells
  RminAve: −99.4122%
KMS-11 cells; CellTiter-Glo
  GI50: 14.4 µM
KMS-11 cells
  RminAve: −99.8489%
